Measurements taken from patent US6353002B2, “Therapeutic agents” (Knoll Aktiengesellschaft, priority 1997, dated 2002).
Structures can show the parent of a compound that is named as a salt.

How the values were obtained:
[1] = molecular target: T1, 5-HT1A receptors (Rattus norvegicus, UniProt P19327); experiment: Inhibition of [3H]8-OH-DPAT binding to 5-HT1A receptors in rat hippocampal tissue; conditions: for Ki: ligand [3H]8-OH-DPAT 2 nM, 25° C., 30 minutes; for % displacement at 10^−6 M, 5-HT1A: single concentration 10^−6 M of test compound, ligand [3H]8-OH-DPAT
T1 construct: Hippocampal tissue from the brains of male Charles River CD rats; from tissue; host or cells: rat hippocampus membrane homogenate
T1 sequence (P19327 1-422): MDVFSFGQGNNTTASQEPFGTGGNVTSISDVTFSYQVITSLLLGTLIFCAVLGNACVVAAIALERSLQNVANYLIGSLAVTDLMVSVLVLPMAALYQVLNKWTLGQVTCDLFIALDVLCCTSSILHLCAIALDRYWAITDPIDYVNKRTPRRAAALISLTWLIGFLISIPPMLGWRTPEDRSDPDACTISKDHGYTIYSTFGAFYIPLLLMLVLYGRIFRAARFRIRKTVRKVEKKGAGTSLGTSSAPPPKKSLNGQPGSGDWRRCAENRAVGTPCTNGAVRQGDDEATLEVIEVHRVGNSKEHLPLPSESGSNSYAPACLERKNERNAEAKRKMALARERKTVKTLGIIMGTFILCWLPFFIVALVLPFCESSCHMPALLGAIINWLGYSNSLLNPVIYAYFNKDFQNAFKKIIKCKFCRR
Description: Hippocampal tissue from the brains of male Charles River CD rats weighing between 150-250 g were homogenised in ice-cold 50 mM Tris-HCl buffer (pH 7.7) when measured at 25° C., 1:40 w/v) and centrifuged at 30,000 g at 4° C. for 10 minutes. The pellet was rehomogenised in the same buffer, incubated at 37° C. for 10 minutes and centrifuged at 30,000 g at 4° C. for 10 minutes. The final pellet was resuspended in 50 mM Tris-HCl buffer (pH 7.7) containing 4 mM CaCl2, 0.1% L-ascorbic acid and 10 μM pargyline hydrochloride (equivalent to 6.25 mg wet weight of tissue/ml) and used immediately in the binding assay. Aliquots (400 μl; equivalent to 2.5 mg wet weight of tissue/tube) of this suspension were added to tubes containing the ligand (50 μl; 2 nM) and distilled water (50 μl; total binding) or 5-HT (50 μl; 10 μM; non-specific binding) or test compound (50 μl; at a single concentration of 10^−8 M or at 10 concentrations ranging from 10^−11−10^−3 M). The ligand was [^3H]8-hydroxy-2-(dipropylamino)tetralin ([^3H]8-OH-DPAT) and the mixture was incubated at 25° C. for 30 minutes before the incubation was terminated by rapid filtration.
The filters were washed with ice-cold Tris-HCl buffer and dried. The filters were punched out into vials, scintillation fluid added and radioactivity determined by liquid scintillation counting. The percentage displacement of specific binding of the tritiated ligand was calculated for the single concentration (10^−6 M) of test compound. Displacement curves were then produced for those compounds which displaced ≧50% of specific binding of the tritiated ligand at 10^−6 M using a range of concentrations of the compound. The concentration which gave 50% inhibition of specific binding (IC50) was obtained from the curve. The inhibition coefficient Ki was then calculated using the formula [formula]
in which [ligand] is the concentration of the tritiated ligand used and KD is the equilibrium dissociation constant for the ligand.

[2] = molecular target: D2-like dopamine receptors (Rattus norvegicus, UniProt P61169); experiment: Inhibition of tritiated (S)-sulpiride binding to D2-like dopamine receptors in rat striatal tissue; conditions: ligand tritiated (S)-sulpiride 1 nM, 4° C., 40 minutes
Description: Striatal tissue from the brains of male Charles River CD rats weighing between 140-250 g were homogenised in ice-cold 50 mM Tris-HCl buffer (pH 7.7 when measured at 25° C.) and centrifuged at 40,000 g for 10 minutes. The pellet was resuspended in Tris salts buffer (50 mM Tris-HCl buffer containing 120 mM NaCl, 5 mM KCl, 2 mM CaCl2 and 1 mM MgCl2 with the addition of 6 mM ascorbic acid; pH 7.7 when measured at 25° C.), and again centrifuged at 40,000 g for 10 minutes. The final pellet was stored at −80° C. Before each test the pellet was resuspended in Tris salts buffer (equivalent to 2 mg wet weight of tissue/ml). […]
The filters were washed with ice-cold Tris-HCl buffer and dried. The filters were punched out in to vials, scintillation fluid added and were left for about 20 hours before being counted by scintillation spectrophotometry. The percentage displacement of specific binding of the tritiated ligand was calculated for the single concentration (10^−6M) of test compound. […] The inhibition coefficient Ki then calculated using the formula [formula] […]

Chain of D2-like dopamine receptors (P61169 whole entry): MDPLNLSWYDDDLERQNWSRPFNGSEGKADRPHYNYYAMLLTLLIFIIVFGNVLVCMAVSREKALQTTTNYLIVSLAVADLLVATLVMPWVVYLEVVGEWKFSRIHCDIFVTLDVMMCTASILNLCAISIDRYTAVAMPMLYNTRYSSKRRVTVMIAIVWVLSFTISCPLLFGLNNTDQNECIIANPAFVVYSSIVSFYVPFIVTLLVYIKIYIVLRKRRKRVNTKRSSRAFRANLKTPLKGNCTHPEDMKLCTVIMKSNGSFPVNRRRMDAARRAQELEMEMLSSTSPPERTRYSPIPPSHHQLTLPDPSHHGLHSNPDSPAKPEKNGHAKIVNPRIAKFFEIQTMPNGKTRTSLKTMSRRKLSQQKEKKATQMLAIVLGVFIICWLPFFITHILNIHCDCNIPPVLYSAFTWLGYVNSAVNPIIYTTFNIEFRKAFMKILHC

| melting point | Ki [1] | SMILES | further results |
| --- | --- | --- | --- |
| 88 to 89 °C | – | Oc1ccccc1N1CCC(CNC[C@H]2COc3ccc4occc4c3O2)CC1 (as salt: fumarate) (hydrate or solvate) [Example 7, (S)-2-{4-[(2,3-Dihydrofuro[3,2-f]-1,4-benzodioxin-2-ylmethyl)-aminomethyl]piperidino}phenol monofumarate 1.1 hydrate, 0.25 ethanol solvate] | – |
| 171 to 172 °C | – | COc1ccccc1N1CCC(CNC[C@H]2COc3ccc4scc(Cl)c4c3O2)CC1 (as salt: fumarate) [Example 1, (S)-N-(9-chloro-2,3-dihydrothieno[3,2-f]-1,4-benzodioxin-2-ylmethyl)-1-[1-(2-methoxyphenyl)piperid-4-yl]methylamine 0.5 fumarate] | – |
| 162 to 163 °C | – | COc1ccccc1N1CCC(CNC[C@H]2COc3ccc4[nH]ccc4c3O2)CC1 (hydrate or solvate) [Example 4, (S)-N-(2,3-dihydro-7H-1,4-dioxino[2,3-e]indol-2-ylmethyl)-1-[1-(2-methoxyphenyl)piperid-4-yl]methylamine 0.1 hydrate] | – |
| 95 to 96 °C | – | COc1ccccc1N1CCC(CNC[C@H]2COc3ccc4occc4c3O2)CC1.O.O=C(O)/C=C/C(=O)O (hydrate or solvate) [Example 6, (S)-N-(2,3-dihydrofuro[3,2-f]-1,4-benzodioxin-2-ylmethyl)-1-[1-(2-methoxyphenyl)piperid-4-yl]methylamine monofumarate monohydrate] | – |
| – | 36 nM | COc1ccccc1N1CCC(CNC[C@H]2COc3ccc4scc(Cl)c4c3O2)CC1 [Example 1, (S)-N-(9-chloro-2,3-dihydrothieno[3,2-f]-1,4-benzodioxin-2-ylmethyl)-1-[1-(2-methoxyphenyl)piperid-4-yl]methylamine 0.5 fumarate] | – |
| 180 to 182 °C | 9.7 nM | COc1ccccc1N1CCC(CNC[C@H]2COc3ccc4sccc4c3O2)CC1.O=C(O)/C=C/C(=O)O [Example 2, (S)-N-(2,3-dihydrothieno[3,2-f]-1,4-benzodioxin-2-ylmethyl)-1-[1-(2-methoxyphenyl)piperid-4-yl]methylamine monofumarate] | – |
| – | – | CCOC(=O)c1cc2c3c(ccc2[nH]1)OC[C@H](CNCC1CCN(c2ccccc2OC)CC1)O3 [Example 3, ethyl (S)-2,3-dihydro-2-(N-{[1-(2-methoxyphenyl)piperid-4-yl]methyl}aminomethyl)-7H-1,4-dioxino[2,3-e]indole-8-carboxylate 0.05 dichloromethane solvate] | % displacement at 10^−6 M, 5-HT1A [1]: 99%; Ki [2]: 106 nM |
| – | – | COc1ccccc1N1CCC(CNC[C@H]2COc3ccc4[nH]ccc4c3O2)CC1 [Example 4, (S)-N-(2,3-dihydro-7H-1,4-dioxino[2,3-e]indol-2-ylmethyl)-1-[1-(2-methoxyphenyl)piperid-4-yl]methylamine 0.1 hydrate] | % displacement at 10^−6 M, 5-HT1A [1]: 99% |
| – | 1.2 nM | COc1ccccc1N1CCC(CNC[C@H]2COc3ccc4[nH]ncc4c3O2)CC1 [Example 5, (S)-N-(2,3-dihydro-7H-1,4-dioxino[2,3-e]indazol-2-ylmethyl)-1-[1-(2-methoxyphenyl)piperid-4-yl]methylamine] | – |
| – | 1.7 nM | COc1ccccc1N1CCC(CNC[C@H]2COc3ccc4occc4c3O2)CC1 [Example 6, (S)-N-(2,3-dihydrofuro[3,2-f]-1,4-benzodioxin-2-ylmethyl)-1-[1-(2-methoxyphenyl)piperid-4-yl]methylamine monofumarate monohydrate] | – |
| – | 3.6 nM | Oc1ccccc1N1CCC(CNC[C@H]2COc3ccc4occc4c3O2)CC1 [Example 7, (S)-2-{4-[(2,3-Dihydrofuro[3,2-f]-1,4-benzodioxin-2-ylmethyl)-aminomethyl]piperidino}phenol monofumarate 1.1 hydrate, 0.25 ethanol solvate] | – |
| – | 1.1 nM | COc1ccccc1N1CCC(CNC[C@H]2COc3ccc4c(c3O2)OCO4)CC1 [Example 8, (S)-N-(7,8-methylenedioxy-2,3-dihydro-1,4-benzodioxin-2-ylmethyl)-1-[1-(2-methoxyphenyl)piperid-4-yl]methyl-amine monocitrate] | – |
